# Laboratory results as given in US9480259B2, “Pyrazolopyrans having herbicidal and pharmaceutical properties” (BASF SE, priority 2012, dated 2016).
# Biological target: Arabidopsis thaliana SHMT
# Test: SHMT activity assay (ED50 SHMT), coupled with N5,N10-CH2-THF dehydrogenase, NADH at 340 nm
# Type: biochemical
# Settings: Table 2; values given as upper bounds
# Procedure: Determination of the ED50 SHMT was carried out as described hereinunder.
# Purification of Arabidopsis thaliana SHMT
# The following buffers were used during the purification protocol:
# Buffer A (Lysis and Wash Buffer): • 20 mM Na-Phosphat (pH 7,4) • 500 mM NaCI • 40 mM Imidazole • 1.0 mM L-Serine • 0.5 mM Pyridoxal-5-phosphate • 0.5 mM DTT
# Buffer B (Elution Buffer): • 20 mM Na-Phosphat (pH 7,4) • 500 mM NaCl • 250 mM Imidazole • 1.0 mM L-Serine • 0.5 mM Pyridoxal-5-phosphate • 0.5 mM DTT
# All procedures were conducted at 4° C. or on ice. Pellets were suspended in Buffer A containing 1 mg/ml DNAse +Complete EDTA-free protease inhibitor tablet. Cells were lysed using sonication or a French Press device, using standard settings. Lysis was centrifuged at 40000×g for 25 minutes. The supernatant was filtered (0.22 μM) before loading onto a Ni-NTA column.
# A gravity flow column containing Ni-NTA resin was equilibrated with 10 CV Buffer A and loaded with filtered cell lysate. The column was then washed with 10 CV Buffer A. Elution was afforded using Buffer B and collected manually as mini-factions. EDTA was added after elution to a final concentration of 1 mM. Fractions were pooled on the basis of the correct band for SHMT visualised via SDS-PAGE and staining.
# SHMT Assay Buffer: • 50 mM KH2PO4 (pH 7,4) • 2.0 mM NAD+ • 7.5 mM DTT • 0.3 mM Tetrahydrofolic acid • 4% DMSO
# Reaction Start: 20 mM L-Serine
# The rate of N5,N10-CH2-THF formation catalyzed by SHMT was monitored at 340 nm by coupling with excess N5,N10-CH2-THF dehydrogenase, which converts NAD+to NADH. Reactions were initiated by adding 20 mM L-Serine. Inhibition of initial velocity was determined by adding various inhibitors of the SHMT reaction and monitored as described. Reactions were measured in a Bio Tek micro titer plate reader following the change in absorption with the formation of NADH for 30 mimnutes.
row,EC50,SMILES
1,< 100 nM,CCC1(c2cc(C(F)(F)F)cc(C(F)(F)F)c2)C(C#N)=C(N)Oc2[nH]nc(C(C)C)c21 (stereo not shown) [Compound 2.120.]
2,< 100 nM,CCC1(c2cc(C(F)(F)F)cc(C(F)(F)F)c2)C(C#N)=C(N)Oc2[nH]nc(C3CC3)c21 (stereo not shown) [Compound 2.121.]
3,< 100 nM,Cc1n[nH]c2c1C(c1cccc(Cl)c1)(C(C)C)C(C#N)=C(N)O2 (stereo not shown) [Compound 2.122.]
4,< 100 nM,CSc1ccc(C2(C(C)C)C(C#N)=C(N)Oc3[nH]nc(C)c32)cc1 (stereo not shown) [Compound 2.123.]
5,< 10 nM,COc1ccc(C2(C(C)C)C(C#N)=C(N)Oc3[nH]nc(C)c32)cc1Cl (stereo not shown) [Compound 2.124.]
6,< 100 nM,Cc1n[nH]c2c1C(CC(C)C)(c1cc(Cl)cc(Cl)c1)C(C#N)=C(N)O2 (stereo not shown) [Compound 2.125.]
7,< 1000 nM,Cc1n[nH]c2c1C(CC(C)C)(c1cccc(Cl)c1)C(C#N)=C(N)O2 (stereo not shown) [Compound 2.126.]
8,< 10000 nM,CC(C)c1n[nH]c2c1C(c1ccc(Cl)cc1)(C1CC1)C(C#N)=C(N)O2 (stereo not shown) [Compound 2.128.]
9,< 10000 nM,N#CC1=C(N)Oc2[nH]nc(C3CC3)c2C1(c1ccc(Cl)cc1)C1CC1 (stereo not shown) [Compound 2.129.]
10,< 1000 nM,CCc1n[nH]c2c1C(CC)(c1ccc(Oc3ccccc3)cc1)C(C#N)=C(N)O2 (stereo not shown) [Compound 2.130.]
11,< 10000 nM,CCC1(c2ccc(Oc3ccccc3)cc2)C(C#N)=C(N)Oc2[nH]nc(C3CC3)c21 (stereo not shown) [Compound 2.131.]
12,< 1000 nM,CCC1(c2cc(Cl)cc(Cl)c2)C(C#N)=C(N)Oc2[nH]nc(C(C)C)c21 (stereo not shown) [Compound 2.132.]
13,< 1000 nM,CCC1(c2cc(Cl)cc(Cl)c2)C(C#N)=C(N)Oc2[nH]nc(C3CC3)c21 (stereo not shown) [Compound 2.133.]
14,< 100 nM,Cc1n[nH]c2c1C(c1ccc(F)c(Cl)c1)(C(C)C)C(C#N)=C(N)O2 (stereo not shown) [Compound 2.134.]
15,< 100 nM,Cc1n[nH]c2c1C(c1ccc(Cl)c(Cl)c1)(C(C)C)C(C#N)=C(N)O2 (stereo not shown) [Compound 2.135.]
16,< 100 nM,CC(C)C1(c2cc(Cl)cc(Cl)c2)C(C#N)=C(N)Oc2[nH]nc(C3CC3)c21 (stereo not shown) [Compound 2.136.]
17,< 100 nM,Cc1n[nH]c2c1C(c1cccc(C(F)(F)F)c1)(C(C)C)C(C#N)=C(N)O2 (stereo not shown) [Compound 2.137.]
18,< 1000 nM,Cc1n[nH]c2c1C(c1ccc(Cl)cc1)(C1CCC1)C(C#N)=C(N)O2 (stereo not shown) [Compound 2.138.]
19,< 1000 nM,CCc1n[nH]c2c1C(c1ccc(Cl)cc1)(C1CCC1)C(C#N)=C(N)O2 (stereo not shown) [Compound 2.139.]
20,< 10000 nM,N#CC1=C(N)Oc2[nH]nc(C3CC3)c2C1(c1ccc(Cl)cc1)C1CCC1 (stereo not shown) [Compound 2.140.]
21,< 1000 nM,Cc1n[nH]c2c1C(CC(C)C)(c1ccc(Cl)c(Cl)c1)C(C#N)=C(N)O2 (stereo not shown) [Compound 2.141.]
22,< 10000 nM,Cc1n[nH]c2c1C(CC(C)C)(c1ccc(Cl)cc1)C(C#N)=C(N)O2 (stereo not shown) [Compound 2.142.]
23,< 1000 nM,Cc1n[nH]c2c1C(c1ccc(Cl)cc1)(C(C)C)C(C#N)=C(N)O2 (stereo not shown) [Compound 2.143.]

row,EC50,SMILES
1,< 10 nM,COc1ccc(C2(C(C)C)C(C#N)=C(N)Oc3[nH]nc(C)c32)cc1C(F)(F)F (stereo not shown) [Compound 2.144.]
2,< 100 nM,Cc1n[nH]c2c1C(c1cc(Cl)cc(Br)c1)(C1CC1)C(C#N)=C(N)O2 (stereo not shown) [Compound 2.146.]
3,< 1000 nM,CCc1n[nH]c2c1C(c1ccc(OC)c(Cl)c1)(C(C)C)C(C#N)=C(N)O2 (stereo not shown) [Compound 2.147.]
4,< 1000 nM,COc1ccc(C2(C(C)C)C(C#N)=C(N)Oc3[nH]nc(C4CC4)c32)cc1Cl (stereo not shown) [Compound 2.148.]
5,< 100 nM,COc1ccc(C2(C3CC3)C(C#N)=C(N)Oc3[nH]nc(C)c32)cc1Cl (stereo not shown) [Compound 2.149.]
6,< 100 nM,COc1ccc(C2(C3CC3)C(C#N)=C(N)Oc3[nH]nc(C)c32)cc1C(F)(F)F (stereo not shown) [Compound 2.150.]
7,< 1000 nM,CCc1n[nH]c2c1C(c1ccc(OC)c(Cl)c1)(C1CC1)C(C#N)=C(N)O2 (stereo not shown) [Compound 2.151.]
8,< 1000 nM,CCc1n[nH]c2c1C(c1ccc(OC)c(C(F)(F)F)c1)(C1CC1)C(C#N)=C(N)O2 (stereo not shown) [Compound 2.152.]
9,< 100 nM,Cc1n[nH]c2c1C(c1cc(Cl)cc(Oc3ccccc3)c1)(C1CC1)C(C#N)=C(N)O2 (stereo not shown) [Compound 2.153.]
10,< 10 nM,Cc1n[nH]c2c1C(c1cc(Cl)cc(Cl)c1)(C1CCC1)C(C#N)=C(N)O2 (stereo not shown) [Compound 2.154.]
11,< 100 nM,CCc1n[nH]c2c1C(c1cc(Cl)cc(Cl)c1)(C1CCC1)C(C#N)=C(N)O2 (stereo not shown) [Compound 2.155.]
12,< 100 nM,Cc1n[nH]c2c1C(c1cc(F)cc(Cl)c1)(C1CCC1)C(C#N)=C(N)O2 (stereo not shown) [Compound 2.157.]
13,< 10000 nM,CCC1(c2ccc(Oc3ccc(C(F)(F)F)cc3Cl)c(C)c2)C(C#N)=C(N)Oc2[nH]nc(C3CC3)c21 (stereo not shown) [Compound 2.164.]
14,< 1000 nM,CCC1(c2cccc(Cl)c2)C(C#N)=C(N)Oc2[nH]nc(C(F)F)c21 (stereo not shown) [Compound 2.165.]
15,< 100 nM,CCC1(c2cc(C(F)(F)F)cc(C(F)(F)F)c2)C(C#N)=C(N)Oc2[nH]nc(C(F)F)c21 (stereo not shown) [Compound 2.166.]
16,< 1000 nM,COc1ccc(C2(C(C)C)C(C#N)=C(N)Oc3[nH]nc(C)c32)cc1 (stereo not shown) [Compound 2.167.]
17,< 100 nM,N#CC1=C(N)Oc2[nH]nc(C(F)F)c2C1(c1cc(Cl)cc(Cl)c1)C1CCC1 (stereo not shown) [Compound 2.168.]
18,< 10 nM,Cc1n[nH]c2c1C(c1cccc(C(F)(F)F)c1)(C1CCC1)C(C#N)=C(N)O2 (stereo not shown) [Compound 2.169.]
19,< 100 nM,CCc1n[nH]c2c1C(c1cccc(C(F)(F)F)c1)(C1CCC1)C(C#N)=C(N)O2 (stereo not shown) [Compound 2.170.]
20,< 100 nM,N#CC1=C(N)Oc2[nH]nc(C3CC3)c2C1(c1cccc(C(F)(F)F)c1)C1CCC1 (stereo not shown) [Compound 2.171.]
21,< 100 nM,Cc1n[nH]c2c1C(c1cccc(Cl)c1)(C1CCC1)C(C#N)=C(N)O2 (stereo not shown) [Compound 2.172.]
22,< 100 nM,CCc1n[nH]c2c1C(c1cccc(Cl)c1)(C1CCC1)C(C#N)=C(N)O2 (stereo not shown) [Compound 2.173.]
23,< 100 nM,N#CC1=C(N)Oc2[nH]nc(C3CC3)c2C1(c1cccc(Cl)c1)C1CCC1 (stereo not shown) [Compound 2.174.]

row,EC50,SMILES
1,< 1000 nM,N#CC1=C(N)Oc2[nH]nc(C(F)F)c2C1(c1cccc(C(F)(F)F)c1)C1CCC1 (stereo not shown) [Compound 2.175.]
2,< 10 nM,COc1ccc(C2(C3CCC3)C(C#N)=C(N)Oc3[nH]nc(C)c32)cc1C(F)(F)F (stereo not shown) [Compound 2.176.]
3,< 10 nM,COc1ccc(C2(C3CCC3)C(C#N)=C(N)Oc3[nH]nc(C)c32)cc1Cl (stereo not shown) [Compound 2.178.]
4,< 100 nM,Cc1n[nH]c2c1C(c1cc(Cl)cc(Oc3ccccc3)c1)(C1CCC1)C(C#N)=C(N)O2 (stereo not shown) [Compound 2.179.]
5,< 100 nM,Cc1n[nH]c2c1C(c1cc(Cl)cc(Cl)c1)(C1(F)CCC1)C(C#N)=C(N)O2 (stereo not shown) [Compound 2.180.]
6,< 100 nM,Cc1n[nH]c2c1C(c1ccc(F)c(Cl)c1)(C1CCC1)C(C#N)=C(N)O2 (stereo not shown) [Compound 2.182.]
7,< 1000 nM,Cc1n[nH]c2c1C(c1ccc(OC(F)(F)F)cc1)(C1CCC1)C(C#N)=C(N)O2 (stereo not shown) [Compound 2.183.]
8,< 100 nM,Cc1n[nH]c2c1C(c1cc(Cl)cc(-c3ccccc3)c1)(C1CC1)C(C#N)=C(N)O2 (stereo not shown) [Compound 2.184.]
9,< 100 nM,Cc1n[nH]c2c1C(c1ccc(OCc3ccccc3)c(Cl)c1)(C(C)C)C(C#N)=C(N)O2 (stereo not shown) [Compound 2.185.]
10,< 100 nM,Cc1n[nH]c2c1C(c1ccc(OCc3ccccc3)c(Cl)c1)(C1CC1)C(C#N)=C(N)O2 (stereo not shown) [Compound 2.186.]
11,< 100 nM,Cc1n[nH]c2c1C(c1cc(Cl)cc(-c3cccc(F)c3)c1)(C1CC1)C(C#N)=C(N)O2 (stereo not shown) [Compound 2.187.]
12,< 100 nM,Cc1n[nH]c2c1C(c1cc(Cl)cc(Oc3ccc(F)cc3)c1)(C1CC1)C(C#N)=C(N)O2 (stereo not shown) [Compound 2.189.]
13,< 100 nM,Cc1n[nH]c2c1C(c1cc(Cl)cc(Oc3cccc(F)c3)c1)(C1CC1)C(C#N)=C(N)O2 (stereo not shown) [Compound 2.190.]
14,< 100 nM,Cc1n[nH]c2c1C(c1cc(C(F)(F)F)cc(C(F)(F)F)c1)(C1CCC1)C(C#N)=C(N)O2 (stereo not shown) [Compound 2.191.]
15,< 100 nM,Cc1n[nH]c2c1C(c1cccc(C#N)c1)(C1CCC1)C(C#N)=C(N)O2 (stereo not shown) [Compound 2.192.]
16,< 10 nM,Cc1n[nH]c2c1C(c1ccc(Cl)c(Cl)c1)(C1CCC1)C(C#N)=C(N)O2 (stereo not shown) [Compound 2.193.]
17,< 1000 nM,N#CC1=C(N)Oc2[nH]nc(C(F)F)c2C1(c1cccc(C#N)c1)C1CCC1 (stereo not shown) [Compound 2.194.]
18,< 1000 nM,N#CC1=C(N)Oc2[nH]ncc2C1(c1cccc(C(F)(F)F)c1)C1CCC1 (stereo not shown) [Compound 2.195.]
19,< 1000 nM,COCc1n[nH]c2c1C(c1cccc(C(F)(F)F)c1)(C1CCC1)C(C#N)=C(N)O2 (stereo not shown) [Compound 2.196.]
20,< 1000 nM,CCCCCCc1n[nH]c2c1C(CC)(c1cccc(Cl)c1)C(C#N)=C(N)O2 (stereo not shown) [Compound 2.197.]
21,< 10 nM,Cc1n[nH]c2c1C(c1cc(Cl)cc(-c3ccsc3)c1)(C1CCC1)C(C#N)=C(N)O2 (stereo not shown) [Compound 2.198.]
